Data as given in US20250375410A1, “COMPOUND FOR PREVENTING OR TREATING NONALCOHOLIC FATTY LIVER DISEASE AND COMPOSITION THEREOF” (SUNWAY BIOTECH CO., LTD., priority 2024, published 2025).
Marks after values point to notes of the source that are not given here.

Columns and labels:
Assay type in all cases: in vivo, C57BL/6J mice
[1] = test system: gut microbiota of nonalcoholic fatty liver mice; assay: Analysis of gut microbiota (full-length 16S sequencing) in nonalcoholic fatty liver mice; conditions: compared with the HFD group; L008, H008 and Msol groups
Procedure: (§1) Embodiment 4 uses a high-fat feed to induce a nonalcoholic fatty liver animal model. The animal experiment lasted for 22 weeks. Animal test feed was prepared according to the formula of Research Diets (New Brunswick, NJ, USA) for D12450B and D12492. The grouping is as follows: • i. ND group: Normal animal group. • ii. HFD group: Control group, nonalcoholic fatty liver mice induced by high-fat feed. • iii. L008 group: Nonalcoholic fatty liver mice induced by high-fat feed and gavaged daily with red yeast rice powder, equivalent to 0.5 g of the red yeast rice of the present invention consumed daily by a 60 kg adult, containing 1.5 mg monascinol (a compound having the structure of Formula (I)). • iv. […]
(1) Extraction of Genomic DNA and PCR Amplification and Purification Total genomic DNA was extracted from samples (QIAamp PowerFecal DNA, Qiagen). DNA concentration was determined using a Qubit 4.0 fluorometer (Thermo Scientific) and adjusted to 1 ng/μL. […] PCR reactions were performed using KAPA HiFi HotStart ReadyMix (Roche): 95° C., 3 minutes; 20-27 cycles (sample-dependent): 95° C., 30 seconds, 57° C., 30 seconds, 72° C., 60 seconds; 72° C. for 5 minutes, and final storage at 4° C. PCR products were monitored on 1% agarose gel. […]

[2] = test system: nonalcoholic fatty liver mice induced by high-fat feed; assay: Liver weight and liver/body weight ratio in high-fat feed induced nonalcoholic fatty liver mice
Procedure: (§2) 1. Preparation of the Composition of the Present invention • (1) L008 and H008 groups: The composition is the red yeast rice of the present invention obtained by fermenting rice with the Monascus pilosus of the present invention as described in Embodiment 2. The daily dosage for adults in the L008 and H008 groups is 0.5 g/day and 2 g/day, containing 1.5 mg/day and 6 mg/day of monascinol (a compound having the structure of Formula (I)), respectively. • (2) Msol group: Monascinol (a compound having the structure of Formula (I)), with a daily dosage of 6 mg/day for adults.
(§3) The experiment used 7-week-old male C57BL/6J strain mice purchased from the National Laboratory Animal Center. The initial body weight was about 23 g, with 12 mice per group. They were housed at 60% relative humidity, room temperature 25±1° C., with a 12-hour light cycle (8:00-20:00). The experiment lasted for 22 weeks, during which food and water were provided ad libitum. Body weight, food intake, and water consumption were measured weekly.
(§4) The feeding dosage calculation was based on the experiment initial estimation method published by the U.S. Food and Drug Administration in 2005 (Estimating the maximum safe starting dose in initial clinical trials for therapeutics in adult healthy volunteers). Using a 60 kg adult as the standard, when conducting trials on higher experimental animals, the dosage conversion principle is to use 12.3 times the recommended daily intake per kilogram of human body weight (mg/kg bw/day) as the recommended daily intake per kilogram of mouse body weight. The calculation formula is as follows: […]
as §1, with “iv. H008 group: Nonalcoholic fatty liver mice induced by high-fat feed and gavaged daily with red yeast rice powder, equivalent to 2 g of the red yeast rice of the present invention consumed daily by a 60 kg adult, containing 6 mg monascinol (a compound having the structure of Formula (I)). • v.” for “iv.”

[3] = test system: nonalcoholic fatty liver mice induced by high-fat feed; assay: Liver lipid extraction and measurement (TG, TC) in high-fat feed induced nonalcoholic fatty liver mice
Procedure: as §2, §3, §4
Embodiment 4 uses a high-fat feed to induce a nonalcoholic fatty liver animal model. The animal experiment lasted for 22 weeks. Animal test feed was prepared according to the formula of Research Diets (New Brunswick, NJ, USA) for D12450B and D12492. The grouping is as follows: • i. ND group: Normal animal group. • ii. HFD group: Control group, nonalcoholic fatty liver mice induced by high-fat feed. • iii. […]

[4] = test system: nonalcoholic fatty liver mice induced by high-fat feed; assay: Serum liver function indices AST and ALT in high-fat feed induced nonalcoholic fatty liver mice
Procedure: as §2, §3, §4
Embodiment 4 uses a high-fat feed to induce a nonalcoholic fatty liver animal model. The animal experiment lasted for 22 weeks. […]
A biochemical auto-analyzer (Model Beckman-700, purchased from Fullerton, CA, USA) was used for detection. The items detected were: TC (Total Cholesterol), TG (Triglyceride), AST (Aspartate Aminotransferase) and ALT (Alanine Aminotransferase) activities.

[5] = test system: nonalcoholic fatty liver mice induced by high-fat feed; assay: Liver histopathology (H&E staining) assessment in high-fat feed induced nonalcoholic fatty liver mice
Procedure: as §2, §3, §4
Embodiment 4 uses a high-fat feed to induce a nonalcoholic fatty liver animal model. The animal experiment lasted for 22 weeks. Animal test feed was prepared according to the formula of Research Diets (New Brunswick, NJ, USA) for D12450B and D12492. The grouping is as follows: • i. ND group: Normal animal group. • ii. HFD group: Control group, nonalcoholic fatty liver mice induced by high-fat feed. • iii. L008 group: Nonalcoholic fatty liver mice induced by high-fat feed and gavaged daily with red yeast rice powder, equivalent to 0.5 g of the red yeast rice of the present invention consumed daily by a 60 kg adult, containing 1.5 mg monascinol (a compound having the structure of Formula (I)). • iv. H008 group: Nonalcoholic fatty liver mice induced by high-fat feed and gavaged daily with red yeast rice powder, equivalent to 2 g of the red yeast rice of the present invention consumed daily by a 60 kg adult, containing 6 mg monascinol (a compound having the structure of Formula (I)). • v. Msol group: Nonalcoholic fatty liver mice induced by high-fat feed and gavaged daily with monascinol (a compound having the structure of Formula (I)) powder, equivalent to 6 mg of monascinol (a compound having the structure of Formula (I)) powder consumed daily by a 60 kg adult.
In the 22nd week of the experiment, food was withheld for 12-14 hours before blood collection. […] The obtained blood samples were centrifuged at 4° C., 3,000×g for 15 minutes. The upper layer of blood was aliquoted into eppendorf tubes and stored at −80° C. The liver was weighed, and the second largest lobe was preserved in 10% pathological formalin. The remaining liver was washed with 0.9% physiological saline, and along with the kidneys, placed in zipper bags and stored at −80° C.
The liver was fixed in 10% formalin, dehydrated, and embedded in paraffin to make tissue sections. […]

[6] = Msol group: monascinol 0.0012 g/kg bw/day by gavage, high-fat diet, 22 weeks, mean ± SD, n = 8
[7] = serum, Msol group: monascinol 0.0012 g/kg bw/day by gavage, high-fat diet, 22 weeks, mean ± SD, n = 8
[8] = lesion severity grade (0 to 4), Msol group: monascinol 0.0012 g/kg bw/day, high-fat diet, 22 weeks, mean ± SD, n = 8

Monascinol [Msol]
Abundance of Blautia and Intestinimonas in the intestine, in words (FIG. 9) [1]: increase the microbial populations of Blautia and Intestinimonas | Liver Weight [2, 6]: 1.01 ± 0.06 ^a g | Liver/Body Weight [2, 6]: 2.85 ± 0.24 ^a % | Effect on liver weight, in words ([2]; versus HFD group, p<0.05, various doses (L008 and H008 groups) and Msol): significantly reducing liver weight | Effect on liver/body weight ratio, in words ([2]; versus HFD group, various doses (L008 and H008 groups) and Msol): improving the liver/body weight ratio | Liver TC [3, 6]: 1.02 ± 0.32 ^ab mg/g | Liver TG [3, 6]: 7.25 ± 0.71 ^a mg/g | Effect on TC and TG in the liver, in words ([3]; versus HFD group, p<0.05): effectively reduced the accumulation of TC and TG in the liver | ALT Activity [4, 7]: 25.3 ± 3.4 ^a U/L | AST Activity [4, 7]: 60.6 ± 3.7 ^a U/L | Effect on serum AST and ALT activities, in words ([4]; versus HFD group, various doses (L008 and H008 groups) and Monascinol): significantly reduced AST and ALT activities | Fatty change with macro-vesicles, multifocal [5, 8]: 0.3 ± 0.7 ^a | Fatty change with micro-vesicles, multifocal [5, 8]: 0.1 ± 0.4 ^a | Fatty change, general [5, 8]: 0.3 ± 0.7 ^a | Inflammation, granulomatous, multifocal ([5]; lesion severity grade (0 to 4), Msol group: monascinol 0.0012 g/kg bw/day, high-fat diet, 22 weeks, n = 8): 0 ^a | Effect on accumulation of liver lipid droplets / fatty infiltration, in words (FIG. 7, Table 6) ([5]; versus HFD group, p<0.05): significantly improved the accumulation of liver lipid droplets and fatty infiltration
